Measurements taken from ChEMBL document CHEMBL3046795, “Antifeedant activity of plant extracts and of new natural diglyceride compounds isolated from Ajuga pseudoiva leaves against Spodoptera littoralis larvae” (2001).

What was measured:
Format in all cases: functional
Spodoptera littoralis [1] = assay: Antifeedant activity against Spodoptera littoralis measured at 50 mg/l after 8 to 24 hr by behavioral bioassay
Spodoptera littoralis [2] = assay: Antifeedant activity against Spodoptera littoralis measured at 100 mg/l after 8 to 24 hr by behavioral bioassay
Spodoptera littoralis [3] = assay: Antifeedant activity against Spodoptera littoralis measured at 1 mg/l after 8 to 24 hr by behavioral bioassay
Spodoptera littoralis [4] = assay: Antifeedant activity against Spodoptera littoralis measured at 10 mg/l after 8 to 24 hr by behavioral bioassay

Row | Structure (SMILES) | AFI (Spodoptera littoralis [1]) | AFI (Spodoptera littoralis [2]) | AFI (Spodoptera littoralis [3]) | AFI (Spodoptera littoralis [4])
1 | C=C(C)[C@@H](CC)CC[C@@H](C)[C@H]1CC[C@H]2[C@@H]3CC=C4C[C@@H](O)CC[C@]4(C)[C@H]3CC[C@]12C [CLEROSTEROL] | -15.3% | 3.3% | – | –
2 | C=C(C)[C@@H](CC)CC[C@@H](C)[C@H]1CC[C@H]2[C@@H]3CC=C4C[C@@H](OC(=O)CCC)CC[C@]4(C)[C@H]3CC[C@]12C [MIGHAVIDE] | -0.5% | 10.3% | – | –
3 | CCCCCCCCCCCCCC(O)CC(=O)OC (stereo not drawn) [3-HYDROXYHEXADECANOIC ACID METHYL ESTER] | 32% | 45% | -3.5% | 9.1%
